From patent US20260355330A1, “CELL PENETRATING PEPTIDES AND USES THEREOF” (VECTIOPEP OÜ, priority 2022, published 2026)

Experiments:
[1] = tested on: CHO-K1 cells; experiment: Delivery of reporter mRNA with CPPs in cell culture (luciferase luminescence 24 h post-transfection); assay type: cell-based
Procedure, shortened: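 CHO-K1 cells (10,000/well) transfected in 10% FBS DMEM with 0.1 μg firefly luciferase mRNA complexed with CPP at 3:1 charge ratio (peptide excess). Luminescence read in lysates 24 h later, normalised to BCA total protein (RLU/mg).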

[2] = tested on: CHO-K1 cells; experiment: Comparison of reporter levels in cells post-transfection of pDNA or mRNA delivered by CPPs; assay type: cell-based; settings: in words; mRNA cargo; FIG. 2
Protocol: FIG. 2: Comparison of reporter levels in cells post-transfection of pDNA or mRNA delivered by CPPs (P14, NF55 and NF71; relative light units normalised to total protein in the cell lysate (RLU/mg)). Naked mRNA and untreated cells (UT) were used as controls.
Adherent CHO-K1 cells were grown in Dulbecco's Modified Eagle's Medium (DMEM), which were supplemented with 0.1 mM non-essential amino acids, 1.0 mM sodium pyruvate, 100 U/ml penicillin, and […]. For complete media, 10% (final) fetal bovine serum (FBS) was added. Cells were maintained in a humidified incubator at 37 °C, 5% CO2. Cell viability and confluence was assessed daily and the cell density was reduced regularly. For cell counting, we used the CytoSMART cell counter accompanied by 0.4% trypan blue staining prior measurement. The multi-well plates with cell cultures used for experiments were incubated in a humidified incubator at 37 °C, 5% CO2.
For in vitro experiments 0.1 μg of nucleic acid (plasmid DNA (pDNA) or mRNA) was used per 96-well plate well. For CPP/NA complex formation, the diluted NA was mixed with CPP in water. Complexes were formed based on the theoretical charge ratio (CR) of positive charges from the peptide in excess to the negative charges from nucleic acid backbone, at charge ratio 3:1 with peptide in excess. […]
For reporter luminescence (expressed from firefly luciferase encoding mRNA or plasmid pDNA) assessment in adherent cell culture, 10,000 cells per 96-well plate well were seeded in 100 μl of media one day prior to transfection. […]
24 hours post-transfection, the media was aspirated, cells were washed with 1×PBS, and 30 μl of lysis buffer (0.1% Triton X100 in 1×PBS) was added. […] From the lysate, 20 μl was transferred to a black frame white well 96-well plate for luminescence measurement after addition of substrate luciferin (PerkinElmer) in buffer. The luminescence signal was detected with GloMax® 96 microplate luminometer equipped with GloMax® 1.9.2 software (Promega). […]

## CCCCCCCCCCCCCCCCCC(=O)N[C@@H](C)C(=O)NCC(=O)N[C@@H](Cc1ccc(O)cc1)C(=O)N[C@@H](CC(C)C)C(=O)N[C@@H](CC(C)C)C(=O)NCC(=O)NCCC[C@H](N)C(=O)N[C@H](C(=O)N[C@@H](CC(N)=O)C(=O)N[C@@H](CC(C)C)C(=O)N[C@@H](CCCCN)C(=O)N[C@@H](C)C(=O)N[C@@H](CC(C)C)C(=O)N[C@@H](C)C(=O)N[C@@H](C)C(=O)N[C@@H](CC(C)C)C(=O)N[C@@H](C)C(=O)N[C@@H](CCCCN)C(=O)N[C@@H](C)C(=O)N[C@H](C(=O)N[C@@H](CC(C)C)C(N)=O)[C@@H](C)CC)[C@@H](C)CC [NF55]
[1]; firefly luciferase mRNA, 0.1 μg per well, charge ratio 3:1, serum containing media, 24 h, RLU normalised to total protein in lysate
  Average RLU/mg (reporter levels post-transfection of mRNA): 1 270 000 000 RLU/mg
[1]; in words, FIG. 1 / Table 2, cell culture
  Efficiency of mRNA transfection/delivery: the most efficient
[2]
  Efficiency of mRNA transfection (parallel pDNA/mRNA comparison): very efficient for mRNA transfection
